The record followed here is patent publication US9856216B2, “Compounds as TNIK, IKKε and TBK1 inhibitors and pharmaceutical composition comprising same” (GREEN CROSS CORPORATION, priority 2015, dated 2018).

Counter-ions that a name gives are not always drawn.

T1 sequence (Q9UKE5 1-367 limits assumed): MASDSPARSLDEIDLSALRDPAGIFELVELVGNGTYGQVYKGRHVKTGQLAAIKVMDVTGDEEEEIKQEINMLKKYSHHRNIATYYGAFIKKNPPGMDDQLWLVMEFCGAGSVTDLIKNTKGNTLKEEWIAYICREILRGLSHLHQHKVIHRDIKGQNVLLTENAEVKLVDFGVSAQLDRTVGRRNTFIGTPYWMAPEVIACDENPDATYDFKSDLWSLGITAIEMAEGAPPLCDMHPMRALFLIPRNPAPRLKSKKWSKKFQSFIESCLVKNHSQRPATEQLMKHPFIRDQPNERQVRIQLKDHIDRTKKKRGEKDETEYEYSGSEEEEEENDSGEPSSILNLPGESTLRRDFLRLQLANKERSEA

The test addresses T1, TNIK (Homo sapiens, UniProt Q9UKE5).
T1 construct: purchased Promega V4158
In words: ADP-Glo Kinase Assay, inhibition activity on TNIK. The test is classed as biochemical. The note with it: read-out: TNIK. Here is the method: The inhibition activities on TNIK, IKKε and TBK1 were measured by a luminometer, TNIK/IKKε/TBK1 Kinase Enzyme System (Promega, Ca# V4158; Invitrogen, PR8031B, Promega, Ca# V3991) and ADP-Glo Kinase Assay using ADP-Glo™ Kinase Analysis Kit (Promega, Ca# V9101) and a kinase reaction buffer [40 mM Tris(pH 7.5), 20 mM MgCl2, 0.1 mg/mL BSA] in accordance with the manufacturer's protocol.
As to `CN(C)CCNc1ccc(C(=O)Nc2ccc(Br)c3c2C(=O)NC3)cc1` [Example 281, N-(7-bromo-3-oxoisoindolin-4-yl)-4-((2-(dimethylamino)ethyl)amino)benzamide], the IC50 was 2420 nM.

Consider `O=C(Nc1ccc(Br)c2c1C(=O)NC2)c1ccc(NCCCN2CCCCC2)cc1` [Example 282, N-(7-bromo-3-oxoisoindolin-4-yl)-4-((3-(piperidin-1-yl)propyl)amino)benzamide], for which the IC50 came out at 1400 nM.

`O=C(Nc1ccc(Br)c2c1C(=O)NC2)c1ccc(NCCN2CCCC2)cc1` [Example 283, N-(7-bromo-3-oxoisoindolin-4-yl)-4-((2-(pyrrolidin-1-yl)ethyl)amino)benzamide]: the IC50 came out at 1760 nM.

As to `O=C(Nc1ccc(Br)c2c1C(=O)NC2)c1ccc(NCCN2CCCCC2)cc1` [Example 284, N-(7-bromo-3-oxoisoindolin-4-yl)-4-((2-(piperidin-1-yl)ethyl)amino)benzamide], the IC50 came out at 1550 nM.

Consider `O=C(Nc1ccc(Br)c2c1C(=O)NC2)c1ccc(NCCN2CCCCCC2)cc1` [Example 285, 4-((2-(azepan-1-yl)ethyl)amino)-N-(7-bromo-3-oxoisoindolin-4-yl)benzamide], for which the IC50 is 1130 nM.

On to `CN(C)CCCNc1ccc(C(=O)Nc2ccc(Br)c3c2C(=O)NC3)cc1` [Example 286, N-(7-bromo-3-oxoisoindolin-4-yl)-4-((3-(dimethylamino)propyl)amino)benzamide], for which the IC50 stood at 1480 nM.

As for `O=C(Nc1ccc(-c2ccco2)c2c1C(=O)NC2)c1ccc(NCCN2CCCC2)cc1` [Example 287, N-(7-(furan-2-yl)-3-oxoisoindolin-4-yl)-4-((2-(pyrrolidin-1-yl)ethyl)amino)benzamide], the IC50 came out at 660 nM.

Regarding `COCCNc1ccc(C(=O)Nc2ccc(-c3ccco3)c3c2C(=O)NC3)cc1` [Example 288, N-(7-(furan-2-yl)-3-oxoisoindolin-4-yl)-4-((2-methoxyethyl)amino)benzamide], the IC50 came out at 450 nM.

In the case of `O=C(Nc1ccc(-c2ccco2)c2c1C(=O)NC2)c1ccc(NCCN2CCCCC2)cc1` [Example 289, N-(7-(furan-2-yl)-3-oxoisoindolin-4-yl)-4-((2-(piperidin-1-yl)ethyl)amino)benzamide], the IC50 came out at 360 nM.

On to `O=C(Nc1ccc(-c2ccco2)c2c1C(=O)NC2)c1ccc(NCCN2CCOCC2)cc1` [Example 290, N-(7-(furan-2-yl)-3-oxoisoindolin-4-yl)-4-((2-morpholinoethyl)amino)benzamide], for which the IC50 is 180 nM.

As for `CN(C)CCNc1ccc(C(=O)Nc2ccc(-c3ccco3)c3c2C(=O)NC3)cc1` [Example 291, 4-((2-(Dimethylamino)ethyl)amino)-N-(7-(furan-2-yl)-3-oxoisoindolin-4-yl)benzamide], the IC50 came out at 540 nM.

As to `O=C(Nc1ccc(-c2ccco2)c2c1C(=O)NC2)c1ccc(NCCO)cc1` [Example 292, N-(7-(furan-2-yl)-3-oxoisoindolin-4-yl)-4-((2-hydroxyethyl)amino)benzamide], the IC50 was found to be 470 nM.

On to `O=C(Nc1ccc(-c2ccco2)c2c1C(=O)NC2)c1ccc(NCCN2CCCCCC2)cc1` [Example 293, 4-((2-(Azepan-1-yl)ethyl)amino)-N-(7-(furan-2-yl)-3-oxoisoindolin-4-yl)benzamide], for which the IC50 turned out to be 480 nM.

In the case of `CN1CCN(CCNc2ccc(C(=O)Nc3ccc(-c4ccco4)c4c3C(=O)NC4)cc2)CC1` [Example 294, N-(7-(furan-2-yl)-3-oxoisoindolin-4-yl)-4-((2-(4-methylpiperazin-1-yl)ethyl)amino)benzamide], the IC50 was determined as 230 nM.

Turning to `CN1CCN(CCCNc2ccc(C(=O)Nc3ccc(-c4ccco4)c4c3C(=O)NC4)cc2)CC1` [Example 295, N-(7-(furan-2-yl)-3-oxoisoindolin-4-yl)-4-((3-(4-methylpiperazin-1-yl)propyl)amino)benzamide], the IC50 was 520 nM.

For the compound `COc1cccc(-c2ccc(NC(=O)c3ccc(NCCCN4CCOCC4)cc3)c3c2CNC3=O)c1OC` [Example 296, N-(7-(2,3-dimethoxyphenyl)-3-oxoisoindolin-4-yl)-4-((3-morpholinopropyl)amino)benzamide], the IC50 was determined as 85 nM.

As for `COc1cccc(-c2ccc(NC(=O)c3ccc(NCCN4CCOCC4)cc3)c3c2CNC3=O)c1OC` [Example 297, N-(7-(2,3-dimethoxyphenyl)-3-oxoisoindolin-4-yl)-4-((2-morpholinoethyl)amino)benzamide], the IC50 was found to be 75 nM.

As for `COc1cccc(-c2ccc(NC(=O)c3ccc(NCCN4CCCCC4)cc3)c3c2CNC3=O)c1OC` [Example 298, N-(7-(2,3-dimethoxyphenyl)-3-oxoisoindolin-4-yl)-4-((2-(piperidin-1-yl)ethyl)amino)benzamide], the IC50 stood at 78 nM.

As to `COc1cccc(-c2ccc(NC(=O)c3ccc(NCCN4CCCC4)cc3)c3c2CNC3=O)c1OC` [Example 299, N-(7-(2,3-dimethoxyphenyl)-3-oxoisoindolin-4-yl)-4-((2-(pyrrolidin-1-yl)ethyl)amino)benzamide], the IC50 stood at 50 nM.

In the case of `COCCNc1ccc(C(=O)Nc2ccc(-c3cccc(OC)c3OC)c3c2C(=O)NC3)cc1` [Example 300, N-(7-(2,3-dimethoxyphenyl)-3-oxoisoindolin-4-yl)-4-((2-methoxyethyl)amino)benzamide], the IC50 stood at 110 nM.

With `COc1cccc(-c2ccc(NC(=O)c3ccc(NCCN(C)C)cc3)c3c2CNC3=O)c1OC` [Example 301, N-(7-(2,3-dimethoxyphenyl)-3-oxoisoindolin-4-yl)-4-((2-(dimethylamino)ethyl)amino)benzamide], the IC50 stood at 100 nM.

Turning to `COc1ccccc1-c1ccc(NC(=O)c2ccc(NCCCN3CCCC3)cc2)c2c1CNC2=O` [Example 302, N-(7-(2-methoxyphenyl)-3-oxoisoindolin-4-yl)-4-((3-(pyrrolidin-1-yl)propyl)amino)benzamide], the IC50 came out at 160 nM.

Take `COc1ccccc1-c1ccc(NC(=O)c2ccc(NCCN3CCCC3)cc2)c2c1CNC2=O` [Example 303, N-(7-(2-methoxyphenyl)-3-oxoisoindolin-4-yl)-4-((2-(pyrrolidin-1-yl)ethyl)amino)benzamide hydrochloride]: the IC50 is 300 nM.

Regarding `COc1cccc(-c2ccc(NC(=O)c3ccc(NCCN4CCCC4)cc3)c3c2CNC3=O)c1OC` [Example 304, N-(7-(2,3-dimethoxyphenyl)-3-oxoisoindolin-4-yl)-4-((2-(pyrrolidin-1-yl)ethyl)amino)benzamide hydrochloride], the IC50 came to 73 nM.

Consider `COc1ccccc1-c1ccc(NC(=O)c2ccc(NCCN(C)C)cc2)c2c1CNC2=O` [Example 305, 4-((2-(Dimethylamino)ethyl)amino)-N-(7-(2-methoxyphenyl)-3-oxoisoindolin-4-yl)benzamide], for which the IC50 was determined as 200 nM.

`COc1cccc(-c2ccc(NC(=O)c3ccc(NCCCN(C)C)cc3)c3c2CNC3=O)c1OC` [Example 306, N-(7-(2,3-dimethoxyphenyl)-3-oxoisoindolin-4-yl)-4-((3-(dimethylamino)propyl)amino)benzamide]: the IC50 amounted to 74 nM.

On to `COc1ccccc1-c1ccc(NC(=O)c2ccc(NCCCN3CCCCC3)cc2)c2c1CNC2=O` [Example 307, N-(7-(2-methoxyphenyl)-3-oxoisoindolin-4-yl)-4-((3-(piperidin-1-yl)propyl)amino)benzamide], for which the IC50 worked out at 190 nM.

Regarding `COc1cccc(-c2ccc(NC(=O)c3ccc(NCCCN4CCCCC4)cc3)c3c2CNC3=O)c1OC` [Example 308, N-(7-(2,3-dimethoxyphenyl)-3-oxoisoindolin-4-yl)-4-((3-(piperidin-1-yl)propyl)amino)benzamide], the IC50 came to 53 nM.

Regarding `Cc1cc(NCCN2CCCC2)ccc1C(=O)Nc1ccc(-c2ccccc2)c2c1C(=O)NC2` [Example 309, 2-Methyl-N-(3-oxo-7-phenylisoindolin-4-yl)-4-((2-(pyrrolidin-1-yl)ethyl)amino)benzamide], the IC50 came to 4820 nM.

`COCCCNc1ccc(C(=O)Nc2ccc(-c3cccnc3OC)c3c2C(=O)NC3)cc1` [Example 310, 4-((3-Methoxypropyl)amino)-N-(7-(2-methoxypyridin-3-yl)-3-oxoisoindolin-4-yl)benzamide]: the IC50 stood at 390 nM.

Regarding `COc1cccc(-c2ccc(NC(=O)c3ccc(NCCO)cc3)c3c2CNC3=O)c1OC` [Example 311, N-(7-(2,3-dimethoxyphenyl)-3-oxoisoindolin-4-yl)-4-((2-hydroxyethyl)amino)benzamide], the IC50 came to 52 nM.

`COc1cccc(-c2ccc(NC(=O)c3ccc(N4CCOCC4)cc3)c3c2CNC3=O)c1OC` [Example 312, N-(7-(2,3-dimethoxyphenyl)-3-oxoisoindolin-4-yl)-4-morpholinobenzamide]: the IC50 was determined as 730 nM.

Consider `COc1c(F)cccc1-c1ccc(NC(=O)c2ccc(NCCN3CCCC3)cc2)c2c1CNC2=O` [Example 313, N-(7-(3-fluoro-2-methoxyphenyl)-3-oxoisoindolin-4-yl)-4-((2-(pyrrolidin-1-yl)ethyl)amino)benzamide], for which the IC50 came out at 450 nM.

Regarding `COc1cccc(-c2ccc(NC(=O)c3ccc(NCCN4CCN(C)CC4)cc3)c3c2CNC3=O)c1OC` [Example 314, N-(7-(2,3-dimethoxyphenyl)-3-oxoisoindolin-4-yl)-4-((2-(4-methylpiperazin-1-yl)ethyl)amino)benzamide], the IC50 is 86 nM.

For the compound `COc1cccc(-c2ccc(NC(=O)c3ccc(NCCN)cc3)c3c2CNC3=O)c1OC` [Example 315, 4-((2-Aminoethyl)amino)-N-(7-(2,3-dimethoxyphenyl)-3-oxoisoindolin-4-yl)benzamide], the IC50 worked out at 37 nM.

For the compound `COc1cccc(-c2ccc(NC(=O)c3ccc(NCCCN4CCN(C)CC4)cc3)c3c2CNC3=O)c1OC` [Example 316, N-(7-(2,3-dimethoxyphenyl)-3-oxoisoindolin-4-yl)-4-((3-(4-methylpiperazin-1-yl)propyl)amino)benzamide], the IC50 came out at 57 nM.
